EC50 data for eight compounds are collected here from patent US8846638B2, “Macrocyclic nucleoside phosphoramidate derivatives” (Enanta Pharmaceuticals, Inc., priority 2012, dated 2014).

As a reminder, the EC50 is the concentration that produces a half-maximal response.

For test [1], the system named is HCV 1b genotype replicon (strain Con1, SGR 11-7 cell line). The experiment in a line: HCV replicon assay, qRT-PCR, genotype 1b (SGR 11-7 cells). The test is classed as cell-based. The settings on record: Hepatitis C virus; Genotype-1b replicon, HCV RNA by qRT-PCR normalized to GAPDH RNA. The text has this:
(§1) HCV replicon cell lines (kindly provided by R. Bartenschlager) isolated from colonies as described by Lohman et al. (Lohman et al. (1999) Science 285: 110-113, expressly incorporated by reference in its entirety) and used for all experiments. One of the HCV replicon cell lines (strain Con1, genotype 1b) has the nucleic acid sequence set forth in EMBL Accession No.: AJ242651, the coding sequence of which is from nucleotides 1801 to 8406. Another replicon cell line (strain H77, genotype 1a) was constructed as described by Yi et. al. (Yi et. al. (2004) Journal of Virology 78(15):7904-15). The coding sequences of the published HCV replicons were synthesized and subsequently assembled in plasmids using standard molecular biology techniques.
(§2) One replicon cell line (“SGR 11-7”) stably expresses HCV replicon RNA, genotype 1b, which consists of (i) the HCV 5′UTR fused to the first 12 amino acids of the capsid protein, (ii) the neomycin phosphotransferase gene (neo), (iii) the IRES from encephalomyocarditis virus (EMCV) and (iv) HCV […] to NS5B genes and the HCV 3′UTR. Another replicon cell line (“Huh-1a7”) described by Yi et. al. (Yi et. al. (2004) Journal of Virology 78(15):7904-15, expressly incorporated by reference in its entirety) stably expresses HCV replicon RNA, genotype 1a, which consists of (i) the HCV 5′UTR fused to the first 12 amino acids of the capsid protein, (ii) the HIV tat protein, (iii) the neomycin phosphotransferase gene (neo), (iv) the IRES from encephalomyocarditis virus (EMCV) and (vi) HCV NS3 to NS5B genes that harbor cell culture adaptive mutations (Q1067R, K1691R, S2204I) and the HCV 3′UTR.
(§3) These cell lines are maintained at 37° C., 5% CO2, 100% relative humidity in DMEM (Cat#11965-084, Invitrogen), with 10% fetal calf serum (“FCS”, Invitrogen), 1% non-essential amino acids (Invitrogen), 1% of Glutamax (Invitrogen), 1% of 10× penicillin/streptomycin (Cat#15140-122, Invitrogen) and Geneticin (Cat#10131-027, Invitrogen) at 0.75 mg/ml or 0.25 mg/ml for 11-7 and Huh-1a7 cells, respectively.
(§4) EC50 values of single agent compounds were determined by HCV RNA detection using quantitative RT-PCR, according to the manufacturer's instructions, with a TAQMAN® One-Step RT-PCR Master Mix Reagents Kit (Cat#AB 4309169, Applied Biosystems) on an ABI Model 7500 thermocycler. EC50 values of combinations are similarly determined by HCV RNA detection using quantitative RT-PCR. The TAQMAN primers to use for detecting and quantifying HCV RNA obtained from Integrated DNA Technologies. HCV RNA is normalized to GAPDH RNA levels in drug-treated cells, which is detected and quantified using the Human GAPDH Endogenous Control Mix (Applied Biosystems, AB 4310884E). Total cellular RNA is purified from 96-well plates using the RNAqueous 96 kit (Ambion, Cat#AM1812). Chemical agent cytotoxicity is evaluated using an MTS assay according to the manufacturer's directions (Promega).
(§5) The compounds of the present invention can be effective against the HCV 1a and 1b genotypes. It should also be understood that the compounds of the present invention can inhibit multiple genotypes of HCV. In one embodiment, compounds of the present invention are active against the 1a, 1b, 2a, 2b, 3a, 4a, and 5a genotypes. […] EC50 ranges against HCV 1a or 1b are as follows: A>1 μM; B 0.1-1 μM; C<0.1 μM.

Test [2] concerns HCV 1a genotype replicon (strain H77, Huh-1a7 cell line). The experiment in a line: HCV replicon assay, qRT-PCR, genotype 1a (Huh-1a7 cells). The test is classed as cell-based. Particulars: Hepatitis C virus; Genotype-1a replicon, HCV RNA by qRT-PCR normalized to GAPDH RNA.
From the text: as §1, §2, §3, §4, §5

Consider `C[C@@H]1NP(=O)(Oc2cccc3ccccc23)OCC2OC(n3cnc4c(nc(N)nc43)OCCCCC(F)(F)COC1=O)[C@](C)(O)[C@@H]2O` (stereo partly shown) [Example 2], for which the EC50 in test [1] and in test [2] was 100 to 1000 nM in each case.
Consider `C[C@@H]1NP(=O)(Oc2cccc3ccccc23)OCC2OC(n3cnc4c(nc(N)nc43)OCCCCCCCOC1=O)[C@](C)(O)[C@@H]2O` (stereo partly shown) [Example 3], for which the EC50 in test [1] is 100 to 1000 nM; in test [2], under 100 nM.
For the compound `CC(C)C[C@@H]1NP(=O)(Oc2cccc3ccccc23)OCC2OC(n3cnc4c(nc(N)nc43)OCCCCCCCOC1=O)[C@](C)(O)[C@@H]2O` (stereo partly shown) [Example 4], the figures for the EC50 in test [1] and in test [2] were over 1000 nM and 100 to 1000 nM, respectively.
The corresponding values for `C[C@@H]1NP(=O)(Oc2cccc3ccccc23)OCC2OC(n3cnc4c(nc(N)nc43)OCCCCCOCCCOC1=O)[C@](C)(O)[C@@H]2O` (stereo partly shown) [Example 5] are over 1000 nM and 100 to 1000 nM.
Turning to `C[C@@H]1NP(=O)(Oc2cccc3ccccc23)OCC2OC(n3cnc4c(nc(N)nc43)OCCCCCCOC1=O)[C@](C)(O)[C@@H]2O` (stereo partly shown) [Example 7], the EC50 was 100 to 1000 nM in test [1] and under 100 nM in test [2].
The matching figures for `C[C@@H]1NP(=O)(Oc2ccccc2)OCC2OC(n3cnc4c(nc(N)nc43)OCCCCCCCOC1=O)[C@](C)(O)[C@@H]2O` (stereo partly shown) [Example 8]: 100 to 1000 nM and 100 to 1000 nM.
`C[C@@H]1NP(=O)(Oc2ccccc2)OCC2OC(n3cnc4c(nc(N)nc43)OCCCCCCCCOC1=O)[C@](C)(O)[C@@H]2O` (stereo partly shown) [Example 9]: the EC50 in test [1] and in test [2] was 100 to 1000 nM throughout.
For `C[C@@H]1NP(=O)(Oc2cccc3ccccc23)OCC2OC(n3cnc4c(nc(N)nc43)OCCC=CCCCOC1=O)[C@](C)(O)[C@@H]2O` (stereo partly shown) [Example 10], the EC50 in test [1] and in test [2] was 100 to 1000 nM throughout.
